# From patent US20110034420A1, “NOVEL CRYSTALLINE FORM B OF (2R)-(3-AMINO-2-FLUOROPROPYL)PHOSPHINIC ACID” (priority 2008, published 2011)
# Assay: isoelectric point of the zwitterion
# Assay type: physicochemical
# Conditions: pH at which it may be crystallised
# From the text: (2R)-(3-amino-2-fluoropropyl)phosphinic acid is a zwitterion, that may be crystallised at the isoelectric point, in this case approximately at a pH of 5.3.
compound,measurement,value
NC[C@@H](F)C[PH](=O)O [(2R)-(3-amino-2-fluoropropyl)phosphinic acid],isoelectric point (pH),~5.3 pH
